The numbers were not newly measured in US5744455A (priority 1993, dated 1998), which cites them from elsewhere.

Structures are written as SMILES. Like-named read-outs stand apart in the source and are kept apart here.

Experiment in series [1]: not given
This is another data set of the same source.

The subject of series [2] is cardiac glutathione peroxidase.
For another series, the system named is myocardial lesions. To be noted: doxorubicin alone.
Series [3] concerns doxorubicin-induced toxicity. To be noted: humans and other species.
A further series deals with human tumors. The following applies: single agents.
The subject of series [4] is doxorubicin cardiotoxicity. The following applies: non-cancer-bearing animals.
Experiment in series [5]: not given
This is another data set of the same source.

Experiment in series [6]: not given
The source holds these as a separate data set.

The subject of series [7] is chronic cardiotoxicity induced by Adriamycin. The following applies: ICRF 187 12.5 mg/kg 30 minutes prior to Adriamycin 1.0 mg/kg.
Series [8] relates to daunorubicin cardiotoxicity. To be noted: ICRF 187 given prior to daunorubicin.
The subject of series [9] is chronic daunorubicin cardiotoxicity. To be noted: 30 minutes prior to daunorubicin, 12.5 and 25 mg/kg.
The subject of a further series is heart lesions. The following applies: doxorubicin and ICRF 187.

`O=c1[nH]cc(F)c(=O)[nH]1` [Fluorouracil, fluorouracil]: the oral absorption entry is given as “very poor absorption”.

Turning to `O=C(O)CN(CCN(CC(=O)O)CC(=O)O)CC(=O)O` [EDTA, ethylenediaminetetraacetic acid], in the series with erythrocyte ghost, the “erythrocyte ghost destruction by iron-doxorubicin complex” value is listed as “can prevent erythrocyte ghost destruction”.

As to `COc1cccc2c1C(=O)c1c(O)c3c(c(O)c1C2=O)C[C@@](O)(C(=O)CO)C[C@@H]3O[C@H]1C[C@H](N)[C@H](O)[C@H](C)O1` [doxorubicin], the “risk for development of cardiotoxicity” value in series [1] (accumulated doses greater than 450 mg/m^2) is reported as “greater than 10%”. Also, in series [1] (human, in vivo), the “alopecia (hair loss)” value is listed as “occurs frequently”; the nausea and vomiting result is reported as “occur regularly”; the peak of myelosuppression entry is listed as “approximately 14±2 days”; the recovery from myelosuppression was 15 to 18 days. For the same molecule, in series [1] (infusion over extended periods, e.g., 96 hours), the “cardiotoxicity on prolonged infusion” value is “small but measurable decrease in cardiotoxicity”. Further, the “patients developing unacceptable clinical toxicity” value in series [1] (total cumulative dose 450 mg/m^2) is given as 5-10%. The “cardiac glutathione peroxidase activity” value in [2] is recorded as “directly depresses cardiac glutathione peroxidase activity”. The “animals with myocardial lesions” value with myocardial lesions is recorded as “eight of nine”.

As to `CC(=O)N[C@@H](CS)C(=O)O` [N-acetyl cysteine], the “cardioprotection against doxorubicin-induced toxicity” value in series [3] is recorded as “did not result in significant cardioprotection”.

Take `CC(CN1CC(=O)NC(=O)C1)N1CC(=O)NC(=O)C1` (racemic) [ICRF 159, (±)-1,2-bis(3,5-dioxopiperazinyl-1-yl)propane]: the “anti-tumor effect as single agent” value with human tumors is recorded as “little effect against human tumors”. The doxorubicin cardioprotection result in series [4] is given as “shown promise”. Further, the solubility entry in series [5] is given as “low solubility”.

`Cc1c(C)c2c(c(C)c1O)CCC(C)(CCCC(C)CCCC(C)CCCC(C)C)O2` (stereo not drawn) [Alpha-tocopherol]: the “cardioprotection against doxorubicin-induced toxicity” value in series [3] was “did not result in significant cardioprotection”.

With `C[C@@H](CN1CC(=O)NC(=O)C1)N1CC(=O)NC(=O)C1` [ICRF 187, (+)-1,2-bis(3,5-dioxopiperazinyl-1-yl)propane], in the series on human tumors, the “anti-tumor effect as single agent” value is given as “little effect against human tumors”. Moreover, in series [4], the doxorubicin cardioprotection result is on record as “shown promise”. Further, in series [6] (1500 mg/m^2), the “SGOT and SGPT, vomiting, alopecia” value is “mild elevations of SGOT (serum glutamate-oxalate transaminase) and SGPT (serum glutamic-pyruvic transaminase), occasional vomiting and some alopecia”; the predominant adverse effects result was “leukopenia and thrombocytopenia”. For the same molecule, the dose limiting toxicity in series [6] (administered three times daily, every three days, only chemotherapeutic agent) was 1500 mg/m^2. In addition, in series [6] (daily, for three consecutive days every three weeks), the dose limiting toxicity was 1500 mg/m^2. Also, the solubility entry in [5] is listed as “more water soluble”. Also, the Adriamycin-induced chronic cardiotoxicity result in series [7] is on record as “prevented cardiotoxicity in all treated animals”. Also, the “daunorubicin lethality and cardiotoxicity” value in series [8] is “a reduction of lethality and cardiotoxicity”. Moreover, in [9], the chronic daunorubicin cardiotoxicity result is given as “reduced”. Besides, in the series on heart lesions, the “dogs with no abnormalities in the hearts” value is “three of six”. Moreover, the “dogs with minimal heart lesions” value in the series with heart lesions (six dogs) was “three”.
